Source: patent publication US20240010681A1, “PEPTIDES AND METHODS OF USE” (REALTA LIFE SCIENCES, INC., priority 2020, published 2024)

Legend:
[1] = test system: inflammatory cytokines and chemokines; test: Plasma cytokine and chemokine levels by xMAP bead-based immunoassay in two-hit ALI rat model; format: in vivo
C1q = C1q (Homo sapiens, UniProt P02745+P02746+P02747); test: ELISA-type plate binding assay, C1q (positive control ligand)
C5a = C5a ELISA in plasma, two-hit ALI rat model; format: in vivo
Protocol: C5a was then measured in each sample by ELISA and absorbance was read at 450 nm. Two replicates for each animal were measured for every time point. Data are means and standard error of the mean. Statistical analysis was performed using were conducted using bootstrap approach or Welch's ANOVA. * denotes p=0.010, ** denotes p=0.004, *** denotes p=0.002, and **** denotes p≤0.001 compared to 2-hit animals.
Animals receiving the 2-hit insult had substantially more C5a production at the 1-hour time point as expected (FIG. 20).
RLS-0071 was tested in a two-hit rat model of ALI. The first insult is neutrophil stimulation with lipopolysaccharide (LPS) followed 30 minutes later by a second insult of classical complement activation with incompatible erythrocytes. This model can produce dramatic neutrophil infiltration into alveolar walls, thickening the walls and reducing alveolar airspace by 85%. […] Given the short 5-minute half-life of C5a, the measurement of elevated C5a at 60 minutes is consistent with tissue generated C5a.

[2] = 1 hour after IVT injection; compared to saline
human neutrophils = test: Immunofluorescence binding to purified human neutrophils; format: cell-based; conditions: 1 mM, 30 minutes
Protocol: To evaluate binding of PA-dPEG24 to neutrophils, purified human neutrophils were cytospun onto glass slides. PA-dPEG24 (1 mM) was then added to one set of slides for 30 minutes and the slides were subsequently washed with PBS. The cells were then incubated with an antibody to PA-dPEG24 (1:1,000 dilution of Chicken Anti-PIC1) followed by a labeled secondary antibody (1:2,000 dilution of Anti-Chicken, Alexa Fluor 488) and counterstained with DAPI. Cells were then visualized by microscopy. In each case, DAPI staining confirmed that the cells were present on the slides and intact.

[3] = test system: VEGF binding to VEGFR-2 (KDR); test: VEGF Bioassay (Promega), bioluminescent reporter cells; conditions: increasing peptide concentrations, then human VEGF stimulation
[4] = test system: classical complement pathway mediated hemolysis; test: Free hemoglobin in plasma (intravascular hemolysis), two-hit ALI rat model; format: in vivo; conditions: 10 mg/kg IV; compared with saline treatment
Protocol: Complement inhibition in the bloodstream of rats in the 2-hit ALI model was measured by two different methods. The first method measured free hemoglobin in the plasma of the rats over time, by measuring intravascular hemolysis of the transfused incompatible erythrocytes.

MPO = test: OVA/LPS rat asthma model, MPO in BALF (colorimetric); conditions: vs Day 24 asthma animals
human monocytes = test: C1q-immune complex binding to C1q receptors on human monocytes; format: cell-based; conditions: increasing amounts of peptide
Text: Human monocytes were purified and allowed to adhere to a microtiter plate. […] Absorbance was read at 450 nm. N=3. Bars indicate standard error of the mean (SEM).
Freshly purified human monocytes were allowed to adhere to a 96 well tissue culture plates and nonadherent lymphocytes were removed. […] Unbound immune complexes were washed off and an anti-rabbit HRP antibody was used to detect bound immune complexes, followed by development with TMB and quenching of the reaction with 1N H2SO4 and detection at 450 nm in a plate reader. […] Therefore, without wishing to be bound by theory, this increase has implications for diseases where immune complexes contribute to pathogenesis, including numerous inflammatory ophthalmologic diseases (e.g., uveitis or retinitis), which are situations were increased rapidity of immune complexes can potentially lessen disease severity.

[5] = IV 200 mg/ml (800 mg/kg)
LFA-1 = LFA-1 (Homo sapiens, UniProt P05107+P20701); test: ELISA-type plate binding assay, LFA-1
Protocol: To address this hypothesis, an ELISA-type binding assay was developed in which neutrophil ligands (LFA-1 and MAC-1/CR3) and […] cell ligands (ICAM-1/CD54 and ICAM-2/CD102) were bound to microtiter plates. Plates were then incubated with increasing amounts of PA-dPEG24 in 1% gelatin/PBS buffer probed with antibody to the peptide and developed.
To ascertain if PA-dPEG24 could bind ICAM-1 and LFA-1 in plasma, these receptors were coated onto microtiter plates and then incubated with human plasma containing increasing amounts of PA-dPEG24, probed with antibody to the peptide and then developed.

two-hit ALI model = test: Lung histology (H&E) and ImageJ lung injury score in two-hit ALI rat model; format: in vivo
Protocol: The inventors' previously developed two-hit ALI model is initiated by infusion of LPS (first hit) into Wistar rats followed 30 minutes later with transfusion of 30% incompatible erythrocytes (second hit) and sacrifice of the animals 4 hours later. […] Lungs were isolated from animals four hours after the second hit and tissues evaluated by H&E staining.
To determine the level of lung tissue protection by RLS-0071 in this model, grading of H&E sections for cell wall thickening for the different treatment groups was performed. Images of randomized microscopy fields were converted to black and white and quantified by ImageJ (NIH) analysis. The ratio of black to white pixels was then determined as a measure of lung damage: as lung damage increased, the alveolar walls thickened, shrinking the alveolar space (white space), resulting in a decrease in white pixels and increase in black pixels.

mCH50 = mCH50 ex vivo on plasma of two-hit ALI rats; format: in vivo, rat; conditions: 10 mg/kg IV; compared with saline treated control
[6] = bolus IV 400 mg/kg; four hours after infusion; male Wistar rats

LFA-1, sequence (P20701 26-1170): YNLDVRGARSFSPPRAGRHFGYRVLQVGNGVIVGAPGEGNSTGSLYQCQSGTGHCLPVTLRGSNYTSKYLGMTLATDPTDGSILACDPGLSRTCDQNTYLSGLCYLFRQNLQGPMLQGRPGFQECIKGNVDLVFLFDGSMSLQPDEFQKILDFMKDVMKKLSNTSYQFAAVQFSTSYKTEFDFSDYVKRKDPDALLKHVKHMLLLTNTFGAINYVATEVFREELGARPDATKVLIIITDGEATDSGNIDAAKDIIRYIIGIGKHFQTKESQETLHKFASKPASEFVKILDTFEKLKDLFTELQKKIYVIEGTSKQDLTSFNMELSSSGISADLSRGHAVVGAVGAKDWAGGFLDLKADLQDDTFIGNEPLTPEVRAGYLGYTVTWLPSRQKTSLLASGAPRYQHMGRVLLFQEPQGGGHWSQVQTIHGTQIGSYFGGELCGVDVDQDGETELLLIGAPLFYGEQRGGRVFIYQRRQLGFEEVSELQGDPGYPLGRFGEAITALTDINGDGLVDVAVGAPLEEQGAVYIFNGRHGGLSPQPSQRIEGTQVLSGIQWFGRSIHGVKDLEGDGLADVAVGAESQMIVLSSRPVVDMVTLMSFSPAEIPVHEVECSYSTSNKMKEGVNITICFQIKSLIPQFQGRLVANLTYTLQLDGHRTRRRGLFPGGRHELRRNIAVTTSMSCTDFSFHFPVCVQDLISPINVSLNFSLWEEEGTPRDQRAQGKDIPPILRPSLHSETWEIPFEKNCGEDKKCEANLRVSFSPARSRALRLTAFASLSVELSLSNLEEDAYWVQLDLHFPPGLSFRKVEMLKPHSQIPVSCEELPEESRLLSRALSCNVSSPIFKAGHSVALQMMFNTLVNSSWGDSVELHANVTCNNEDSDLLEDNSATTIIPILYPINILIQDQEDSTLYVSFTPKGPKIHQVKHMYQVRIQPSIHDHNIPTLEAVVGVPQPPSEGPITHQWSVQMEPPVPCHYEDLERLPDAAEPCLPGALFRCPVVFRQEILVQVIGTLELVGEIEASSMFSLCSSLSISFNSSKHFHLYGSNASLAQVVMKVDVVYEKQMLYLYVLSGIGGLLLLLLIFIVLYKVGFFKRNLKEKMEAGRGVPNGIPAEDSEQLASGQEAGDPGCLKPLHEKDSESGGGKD
LFA-1, sequence (P05107 23-769): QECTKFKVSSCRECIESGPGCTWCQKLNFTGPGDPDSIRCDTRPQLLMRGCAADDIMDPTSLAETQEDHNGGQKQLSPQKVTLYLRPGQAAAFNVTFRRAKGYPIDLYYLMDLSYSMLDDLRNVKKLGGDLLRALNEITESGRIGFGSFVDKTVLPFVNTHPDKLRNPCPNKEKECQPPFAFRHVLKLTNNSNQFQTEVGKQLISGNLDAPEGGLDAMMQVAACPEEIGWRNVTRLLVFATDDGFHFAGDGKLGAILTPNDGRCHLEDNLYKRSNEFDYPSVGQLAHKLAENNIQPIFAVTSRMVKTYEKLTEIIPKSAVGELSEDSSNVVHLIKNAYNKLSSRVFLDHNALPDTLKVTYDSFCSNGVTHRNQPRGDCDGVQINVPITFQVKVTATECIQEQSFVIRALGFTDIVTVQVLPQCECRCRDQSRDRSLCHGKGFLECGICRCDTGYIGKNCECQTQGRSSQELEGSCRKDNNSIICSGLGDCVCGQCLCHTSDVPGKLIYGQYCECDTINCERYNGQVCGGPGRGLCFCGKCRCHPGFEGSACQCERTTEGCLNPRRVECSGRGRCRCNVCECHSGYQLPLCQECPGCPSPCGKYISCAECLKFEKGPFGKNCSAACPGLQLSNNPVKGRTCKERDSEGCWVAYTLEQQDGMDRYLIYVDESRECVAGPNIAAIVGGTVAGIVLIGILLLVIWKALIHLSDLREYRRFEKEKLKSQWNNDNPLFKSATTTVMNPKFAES
C1q, sequence (P02745 23-245): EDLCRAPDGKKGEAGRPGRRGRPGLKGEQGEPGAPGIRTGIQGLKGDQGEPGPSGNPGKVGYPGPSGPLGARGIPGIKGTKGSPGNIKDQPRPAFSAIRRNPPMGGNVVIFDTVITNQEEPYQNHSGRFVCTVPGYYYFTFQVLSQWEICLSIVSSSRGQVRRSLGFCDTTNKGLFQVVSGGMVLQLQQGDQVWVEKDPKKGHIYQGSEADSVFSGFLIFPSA
C1q, sequence (P02746 28-253): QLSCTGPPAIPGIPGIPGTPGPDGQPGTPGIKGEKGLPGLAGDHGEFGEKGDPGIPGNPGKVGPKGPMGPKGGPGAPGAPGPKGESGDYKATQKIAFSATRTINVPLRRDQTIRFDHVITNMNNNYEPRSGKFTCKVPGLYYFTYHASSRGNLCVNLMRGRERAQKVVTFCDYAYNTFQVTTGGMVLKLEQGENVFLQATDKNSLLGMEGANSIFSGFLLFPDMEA
C1q, sequence (P02747 29-245): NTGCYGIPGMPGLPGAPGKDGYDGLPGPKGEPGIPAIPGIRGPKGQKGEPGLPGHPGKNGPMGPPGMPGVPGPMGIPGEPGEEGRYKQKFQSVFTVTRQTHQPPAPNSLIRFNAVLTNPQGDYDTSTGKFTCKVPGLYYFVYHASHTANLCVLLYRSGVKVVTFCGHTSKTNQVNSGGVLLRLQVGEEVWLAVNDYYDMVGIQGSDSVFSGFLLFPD

## CC[C@H](C)[C@H](N)C(=O)N[C@@H](C)C(=O)N[C@@H](CC(C)C)C(=O)N[C@H](C(=O)N[C@@H](CC(C)C)C(=O)N[C@@H](CCC(=O)O)C(=O)N1CCC[C@H]1C(=O)N[C@H](C(=O)N[C@@H](CS)C(=O)N[C@@H](CS)C(=O)N[C@@H](CCC(N)=O)C(=O)N[C@@H](CCC(=O)O)C(=O)N[C@@H](CCCNC(=N)N)C(=O)N[C@@H](C)C(=O)N[C@@H](C)C(=O)NCCOCCOCCOCCOCCOCCOCCOCCOCCOCCOCCOCCOCCOCCOCCOCCOCCOCCOCCOCCOCCOCCOCCOCCOCCC(=O)O)[C@@H](C)CC)[C@@H](C)CC [RLS-0071]
[1]; 10 or 160 mg/kg before or 40 or 160 mg/kg after transfusion, FIG. 3
  levels of anti-inflammatory Th2 cytokine IL-4: did not significantly decrease
[1]; 10 or 160 mg/kg before or 40 or 160 mg/kg after transfusion, FIG. 4
  other cytokine and growth factor levels (EGF, LIX, VEGF, Leptin, GRO, Fractalkine, GM-CSF, Eotaxin, G-CSF): either significant reduction or a trend toward reduced levels
[1]; 10 or 160 mg/kg before or 40 or 160 mg/kg after transfusion, terminal blood plasma, FIG. 2
  cytokine levels IL-5, IL-18, IL-1alpha, IL-13, IL-17, IL-12, IP-10: either significant pro-inflammatory cytokine reduction or a trend toward reduced levels
[1]; FIG. 4
  VEGF level in 2-hit rat acute lung injury model: downregulate VEGF
[1]; prophylactic 10 or 160 mg/kg, rescue 40 or 160 mg/kg, terminal 4-hour time point, vs untreated 2-hit animals, some significant
  pro-inflammatory cytokines (IL-1a, IL-1b, IL-6, IFN-g, IL-17, IL-18, TNFa, RANTES) and chemokines (MCP-1, MIP-1a, MIP-2): reduced levels of cytokines and chemokines
[1]; single dose 10 or 160 mg/kg before or 40 or 160 mg/kg after transfusion, terminal blood plasma, FIG. 1
  cytokine levels IFNgamma, IL-6, IL-2, IL-10, TNFalpha, MCP-1, RANTES, MIP1alpha, IL-1beta, MIP-2: either significant pro-inflammatory cytokine reduction or a trend toward reduced levels
C1q; 1% gelatin/PBS buffer
  binding to C1q: bound PA-dPEG24 in a dose-dependent manner
C1q; in human plasma
  binding to C1q: bound PA-dPEG24 in a dose-dependent manner
C5a; 10 mg/kg IV
  decrease in C5a generation in the tissues: 50%
C5a; all rescue doses 40 mg/kg (0.5-180 minutes), 1-hour time point, vs 2-hit only animals
  C5a level in blood: significantly reduced levels of C5a
C5a; prophylactic 10, 40 and 160 mg/kg, 5-minute time point, p<0.001 each dose
  C5a level in blood: significant reduction of C5a
C5a; prophylactic doses, 1-hour time point, 10 mg/kg reaching significance (p=0.002)
  C5a level in blood: reduction of C5a at the 1-hour time points
C5a; rescue 40 mg/kg at 0.5, 60, 90 and 120 minutes (not 180 minutes), 5-minute time point
  C5a level in blood: significantly decreased levels of C5a
[2]
  DAB staining of retinal tissue: significant DAB signal
Human neutrophils
  binding to neutrophil cell surface (immunofluorescence): fluorescence signal demonstrating direct binding of the peptide to the cell surface
[3]
  inhibition of VEGF binding to VEGFR-2 and intracellular signaling (luminescence): dose-dependent inhibition of intracellular signaling
[4]
  inhibition of intravascular hemolysis (free hemoglobin in plasma): no inhibition of classical complement pathway mediated hemolysis
MPO; prophylactic 160 mg/kg IV, p=0.12
  MPO levels in the BALF: reduction in MPO levels that did not reach statistical significance
MPO; rescue 160 mg/kg IV, P=0.05
  MPO levels in the BALF: significant reduction in MPO levels
Human monocytes
  amount of C1q detected on monocytes: increased with increasing amounts of PA-dPEG24
  level of C1q-immune complexes bound to monocytes: did not reduce the level of C1q-immune complexes
[5]
  RLS-0071 level in plasma after 24 hours: undetectable
LFA-1; 1% gelatin/PBS buffer
  binding to LFA-1: bound dose-dependently
LFA-1; in human plasma
  binding to LFA-1: bound dose-dependently
two-hit ALI model; 10 mg/kg prophylactic dose, p=0.002 vs untreated 2-hit animals
  lung injury score (ratio of black to white pixels): significant reduction in lung damage
two-hit ALI model; 40 mg/kg prophylactic dose, p<0.001 vs untreated 2-hit animals
  lung injury score (ratio of black to white pixels): this effect was enhanced
two-hit ALI model; prophylactic 10, 40 or 160 mg/kg 2 minutes before incompatible erythrocyte transfusion, lungs 4 h after second hit
  lung damage by H&E histology: marked reduction in lung damage
two-hit ALI model; rescue 40 mg/kg at 0.5, 60, 90, 120 and 180 min after second hit
  lung tissue architecture by H&E histology: lung tissue architecture resembling that of sham animals
two-hit ALI model; rescue 40 mg/kg at 0.5, 60, 90, 120 and 180 minutes after erythrocyte transfusion, all p<0.001
  lung injury score (ratio of black to white pixels): significant reduction in lung damage
mCH50
  inhibition of mCH50: did not inhibit mCH50
[6]
  staining for peptide in kidney tissue: dark staining on the glomerulus and tubules
  staining for peptide in liver tissue: discrete staining
